Measurements: ChEMBL document CHEMBL1201862, “PubChem BioAssay data set” (2004)
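Grown in 96-well plates, cells were treated for 48 hours with each compound at five concentrations. Insufficient inhibition: endpoint recorded as highest concentration tested. Abbreviation: GI50, concentration required for 50% inhibition of growth.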 Activity calls are given as the source filed them. No stated cut-off is given here; in the data, active = GI50 up to about 1.1 µM and inactive = higher.

Tests used:
Assay in all cases: inhibition of tumour cell growth, NCI panel, 48 h
UO-31 = system: UO-31
OVCAR-3 = system: OVCAR-3
MCF7 = system: MCF7
SF-268 = system: SF-268
SR = system: SR
RPMI-8226 = system: RPMI-8226
A498 = system: A498
HCT-116 = system: HCT-116
NCI-H522 = system: NCI-H522
CCRF-CEM = system: CCRF-CEM
K562 = system: K562
ACHN = system: ACHN
T47D = system: T47D
SK-MEL-28 = system: SK-MEL-28
NCI-H23 = system: NCI-H23
SN12C = system: SN12C
CAKI-1 = system: CAKI-1
MDA-MB-435 = system: MDA-MB-435
IGROV-1 = system: IGROV-1
PC-3 = system: PC-3

| SMILES | GI50 (UO-31) | GI50 (OVCAR-3) | GI50 (MCF7) | GI50 (SF-268) | GI50 (SR) | GI50 (RPMI-8226) | GI50 (A498) | GI50 (HCT-116) | GI50 (NCI-H522) | GI50 (CCRF-CEM) | GI50 (K562) | GI50 (ACHN) | GI50 (T47D) | GI50 (SK-MEL-28) | GI50 (NCI-H23) | GI50 (SN12C) | GI50 (CAKI-1) | GI50 (MDA-MB-435) | GI50 (IGROV-1) | GI50 (PC-3) |
| --- | --- | --- | --- | --- | --- | --- | --- | --- | --- | --- | --- | --- | --- | --- | --- | --- | --- | --- | --- | --- |
| CCOC(=O)Nc1cc2c(c(N)n1)N=C(c1ccc(OC)cc1)CN2 | 0.206 µM (active) | 0.00044 µM (active) | 0.00434 µM (active) | 0.00119 µM (active) | < 0.0001 µM (active) | < 0.01 µM (active) | 0.282 µM (active) | 0.000251 µM (active) | 0.00277 µM (active) | 0.0016 µM (active) | < 0.01 µM (active) | 0.00104 µM (active) | 0.582 µM (active) | 0.0057 µM (active) | 0.0692 µM (active) | 0.00436 µM (active) | < 0.0001 µM (active) | < 0.0001 µM (active) |  |  |
| COc1ccc(O[C@H](CO)C[C@@H]2COC(C)(C)O2)cc1 | > 100 µM (inactive) | > 100 µM (inactive) | > 100 µM (inactive) | > 100 µM (inactive) | > 100 µM (inactive) | > 100 µM (inactive) | > 100 µM (inactive) | > 100 µM (inactive) | > 100 µM (inactive) | > 100 µM (inactive) | > 100 µM (inactive) | > 100 µM (inactive) |  | > 100 µM (inactive) | > 100 µM (inactive) | > 100 µM (inactive) | > 100 µM (inactive) | > 100 µM (inactive) | > 100 µM (inactive) | > 100 µM (inactive) |
| COc1cc(/C=C2\NC(=O)N(/C=C3\C(=O)Oc4ccccc4C3=O)C2=O)ccc1O | 44.4 µM (inactive) |  | > 100 µM (inactive) | 57.1 µM (inactive) |  | > 100 µM (inactive) | 42.1 µM (inactive) | > 100 µM (inactive) | 29.2 µM (inactive) | 32.7 µM (inactive) | > 100 µM (inactive) | > 100 µM (inactive) | > 100 µM (inactive) |  | 80.2 µM (inactive) | 54.3 µM (inactive) | 59.8 µM (inactive) | > 100 µM (inactive) | 62.7 µM (inactive) | 64 µM (inactive) |
| c1ccc(C[P+]2(c3ccccc3)c3ccccc3-c3ccccc32)cc1 | > 100 µM (inactive) | > 100 µM (inactive) | > 100 µM (inactive) | > 100 µM (inactive) |  | > 100 µM (inactive) |  | > 100 µM (inactive) | > 100 µM (inactive) | > 100 µM (inactive) | > 100 µM (inactive) |  |  | > 100 µM (inactive) | > 100 µM (inactive) | > 100 µM (inactive) | > 100 µM (inactive) | > 100 µM (inactive) | > 100 µM (inactive) | > 100 µM (inactive) |
| C=CCc1c(O)c2ccccc2[nH]c1=O | > 100 µM (inactive) | > 100 µM (inactive) | > 100 µM (inactive) |  | > 100 µM (inactive) | > 100 µM (inactive) | > 100 µM (inactive) | > 100 µM (inactive) | > 100 µM (inactive) | > 100 µM (inactive) | > 100 µM (inactive) | > 100 µM (inactive) |  | > 100 µM (inactive) | > 100 µM (inactive) | > 100 µM (inactive) | > 100 µM (inactive) | > 100 µM (inactive) | > 100 µM (inactive) | > 100 µM (inactive) |
| CCOC(=O)[C@@H]1C2C(=C[C@H]3[C@H]1C(=O)N1CCCC[C@H]31)CCCN2C(=O)OCc1ccccc1 (stereo partly specified) | 32.8 µM (inactive) | 30.1 µM (inactive) | 29.5 µM (inactive) | 23.3 µM (inactive) |  | 20.2 µM (inactive) | 23.6 µM (inactive) | 35.6 µM (inactive) | 18.5 µM (inactive) | 22.3 µM (inactive) | 30.8 µM (inactive) | 29.9 µM (inactive) | 29.3 µM (inactive) | 59.7 µM (inactive) | 29.3 µM (inactive) | 47.5 µM (inactive) | 43.1 µM (inactive) | 35 µM (inactive) | 41.3 µM (inactive) | 28.1 µM (inactive) |
| COc1ccc(-c2c(C#N)c(-c3ccccc3)n(NS(=O)(=O)c3ccccc3)c(=O)c2C#N)cc1 |  |  | 50.5 µM (inactive) | 97.3 µM (inactive) |  | 29.2 µM (inactive) | > 100 µM (inactive) | > 100 µM (inactive) | 20.5 µM (inactive) | 36.9 µM (inactive) | 65.9 µM (inactive) | > 100 µM (inactive) |  | > 100 µM (inactive) |  | > 100 µM (inactive) | > 100 µM (inactive) | > 100 µM (inactive) | 36.3 µM (inactive) | 59 µM (inactive) |
| CC1=C(SCc2ccccc2)C(=O)c2ccccc2C1=O |  | 10.5 µM (inactive) | 14.2 µM (inactive) | 16.7 µM (inactive) |  | 2.42 µM (inactive) | 24 µM (inactive) | 4.23 µM (inactive) |  | 2.9 µM (inactive) | 3.05 µM (inactive) | 13.6 µM (inactive) | 3.18 µM (inactive) | 19.2 µM (inactive) | 17.9 µM (inactive) | 17.8 µM (inactive) | 13.4 µM (inactive) | 14.6 µM (inactive) | 12 µM (inactive) | 17.6 µM (inactive) |
| CN1C(=O)CC(CC(=O)C2CCCCC2=O)CC1=O (stereo unspecified) | > 100 µM (inactive) | > 100 µM (inactive) |  | > 100 µM (inactive) | > 100 µM (inactive) | > 100 µM (inactive) | > 100 µM (inactive) | > 100 µM (inactive) | > 100 µM (inactive) | > 100 µM (inactive) | > 100 µM (inactive) | > 100 µM (inactive) |  | > 100 µM (inactive) | > 100 µM (inactive) | > 100 µM (inactive) | > 100 µM (inactive) |  | > 100 µM (inactive) |  |
| Oc1[nH]c(Nc2ccc(F)c(Cl)c2)nc2ncnc1-2 | > 100 µM (inactive) | > 100 µM (inactive) | > 100 µM (inactive) | > 100 µM (inactive) |  | > 100 µM (inactive) | > 100 µM (inactive) | > 100 µM (inactive) | > 100 µM (inactive) | > 100 µM (inactive) |  | > 100 µM (inactive) | > 100 µM (inactive) | > 100 µM (inactive) | > 100 µM (inactive) | > 100 µM (inactive) | > 100 µM (inactive) | > 100 µM (inactive) | > 100 µM (inactive) | > 100 µM (inactive) |
| C=C1[C@@H](OC(C)=O)/C=C/C2C3C(=O)[C@@](C)(OC(C)=O)[C@H]([C@H](OC(C)=O)[C@]4(O)[C@@H](C)C(=O)O[C@H]4[C@H]1Cl)[C@@]23C (stereo partly specified) | > 100 µM (inactive) | > 100 µM (inactive) |  | > 100 µM (inactive) |  | > 100 µM (inactive) | > 100 µM (inactive) | > 100 µM (inactive) | > 100 µM (inactive) | > 100 µM (inactive) | > 100 µM (inactive) | > 100 µM (inactive) | > 100 µM (inactive) | > 100 µM (inactive) | > 100 µM (inactive) | > 100 µM (inactive) | > 100 µM (inactive) | > 100 µM (inactive) | > 100 µM (inactive) | > 100 µM (inactive) |
| N/C(COc1ccc(Cl)cc1)=N\NC(=O)c1ccncc1 |  | > 100 µM (inactive) | > 100 µM (inactive) | > 100 µM (inactive) |  | 39.4 µM (inactive) | 57.9 µM (inactive) | > 100 µM (inactive) | > 100 µM (inactive) | 51.1 µM (inactive) | > 100 µM (inactive) | > 100 µM (inactive) | 62.4 µM (inactive) | > 100 µM (inactive) | > 100 µM (inactive) | > 100 µM (inactive) | > 100 µM (inactive) | > 100 µM (inactive) | > 100 µM (inactive) | > 100 µM (inactive) |
| NC(=O)C(=Cn1c(=S)[nH]c2ccc([N+](=O)[O-])cc21)C(N)=O | > 100 µM (inactive) | > 100 µM (inactive) |  | > 100 µM (inactive) |  |  | > 100 µM (inactive) | > 100 µM (inactive) |  |  |  | > 100 µM (inactive) | > 100 µM (inactive) | > 100 µM (inactive) | > 100 µM (inactive) | > 100 µM (inactive) | > 100 µM (inactive) | > 100 µM (inactive) | > 100 µM (inactive) |  |
| COc1cccc(/C=C\c2ccnc3ccccc23)c1 | > 10 µM (inactive) | > 10 µM (inactive) | > 10 µM (inactive) | > 10 µM (inactive) |  | > 10 µM (inactive) | > 10 µM (inactive) | > 10 µM (inactive) | > 10 µM (inactive) | > 10 µM (inactive) | > 10 µM (inactive) | > 10 µM (inactive) | > 10 µM (inactive) | > 10 µM (inactive) | > 10 µM (inactive) | > 10 µM (inactive) | > 10 µM (inactive) | > 10 µM (inactive) | > 10 µM (inactive) | > 10 µM (inactive) |
| CC1CC(OP(=O)(OCc2ccccc2)OCc2ccccc2)[C@@H](OCc2ccccc2)C(OCc2ccccc2)C1OCc1ccccc1 (stereo partly specified) | 15.5 µM (inactive) |  | 40.2 µM (inactive) | 62.7 µM (inactive) | > 100 µM (inactive) | > 100 µM (inactive) |  | 17.9 µM (inactive) | 81.8 µM (inactive) | > 100 µM (inactive) | 76.9 µM (inactive) | 43.9 µM (inactive) | 41.8 µM (inactive) | > 100 µM (inactive) | 25.3 µM (inactive) | > 100 µM (inactive) | > 100 µM (inactive) |  | 64.7 µM (inactive) | 23.4 µM (inactive) |
| OCC(O)C(Cl)CCl (stereo unspecified) | > 100 µM (inactive) | > 100 µM (inactive) | > 100 µM (inactive) | > 100 µM (inactive) | > 100 µM (inactive) |  | > 10 µM (inactive) | > 100 µM (inactive) | > 100 µM (inactive) | > 100 µM (inactive) | > 100 µM (inactive) | > 100 µM (inactive) | > 100 µM (inactive) | > 100 µM (inactive) | > 100 µM (inactive) | > 100 µM (inactive) | > 100 µM (inactive) |  | > 100 µM (inactive) | > 100 µM (inactive) |
